Measured values: article PMC11480411, “Mucosal sugars delineate pyrazine vs pyrazinone autoinducer signaling in Klebsiella oxytoca” (Nature Communications, 2024)

Experiments:
Test in all cases: PRESTO-Tango GPCR screen
Format in all cases: cell-based
Details in all cases: 100 µM
FFA1 = molecular target: T1, FFA1 (Homo sapiens, UniProt O14842)
T1 construct: purchased PRESTO-Tango GPCR kit (Roth lab / Addgene)
Protocol: (§1) The PRESTO-Tango analyses were performed as previously published. Briefly, HTLA cells, a HEK293 cell line that stably expresses β-arrestin-TEV and tTA-Luciferase (a kind gift from Gilad Barnea, Brown University), were plated in 96-well tissue culture plates (Eppendorf) in DMEM containing 10% FBS and 1% Penicillin/Streptomycin. One day after plating (after reaching approximately 90% confluence), 200 ng per well GPCR-Tango plasmids[37] in 20 μL DMEM were individually mixed with 400 ng polyethylenimine (Polysciences) in an equal volume of DMEM and incubated for 20 min at room temperature before adding the transfection mixture to the HTLA cells. 16-24 h after transfection, medium was replaced with 180 μL fresh DMEM containing 1% Penicillin/Streptomycin and 10 mM HEPES and 20 μL of 3 or 3-Homo to reach a final concentration of 100 μM. Supernatants were aspirated 20 h after stimulation and 50 μl per well of Bright-Glo solution (Promega) diluted 20-fold with PBS containing 20 mM HEPES was added into each well. After 15 min incubation at room temperature, luminescence was quantified using a Spectramax i3x microplate reader (Molecular Devices). Activation fold for each sample was calculated by dividing relative luminescence units (RLU) for each condition by RLUs from PBS control. Dose response curves of each chemical were performed in a similar way with varying the ligand concentration from 10^−4 M to 10^−15 M.

CHRM5 = molecular target: T2, CHRM5 (Homo sapiens, UniProt P08912)
T2 construct: purchased PRESTO-Tango GPCR kit (Roth lab / Addgene)
T2 sequence (P08912 whole entry): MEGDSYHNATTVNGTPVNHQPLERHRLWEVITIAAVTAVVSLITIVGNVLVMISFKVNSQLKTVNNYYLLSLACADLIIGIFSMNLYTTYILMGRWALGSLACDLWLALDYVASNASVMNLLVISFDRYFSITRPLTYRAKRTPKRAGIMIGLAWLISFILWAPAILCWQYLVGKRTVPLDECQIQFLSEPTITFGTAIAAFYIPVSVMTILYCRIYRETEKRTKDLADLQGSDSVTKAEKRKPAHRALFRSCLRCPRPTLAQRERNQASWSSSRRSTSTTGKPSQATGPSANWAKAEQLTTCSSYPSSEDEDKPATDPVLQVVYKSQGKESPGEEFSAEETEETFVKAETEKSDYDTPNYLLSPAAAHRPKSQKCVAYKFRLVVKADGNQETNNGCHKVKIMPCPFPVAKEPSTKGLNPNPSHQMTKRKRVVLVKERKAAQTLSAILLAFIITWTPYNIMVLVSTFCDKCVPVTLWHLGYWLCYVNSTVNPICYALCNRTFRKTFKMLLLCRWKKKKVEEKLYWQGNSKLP
Protocol: as §1

OXER1 = molecular target: T3, OXER1 (Homo sapiens, UniProt Q8TDS5)
T3 construct: purchased PRESTO-Tango GPCR kit (Roth lab / Addgene)
Protocol: as §1

HTR1D = molecular target: T4, HTR1D (Homo sapiens, UniProt P28221)
T4 construct: purchased PRESTO-Tango GPCR kit (Roth lab / Addgene)
Protocol: as §1

GPR82 = molecular target: T5, GPR82 (Homo sapiens, UniProt Q96P67)
T5 construct: purchased PRESTO-Tango GPCR kit (Roth lab / Addgene)
Protocol: as §1

GPRC5D = molecular target: T6, GPRC5D (Homo sapiens, UniProt Q9NZD1)
T6 construct: purchased PRESTO-Tango GPCR kit (Roth lab / Addgene)
T6 sequence (Q9NZD1 whole entry): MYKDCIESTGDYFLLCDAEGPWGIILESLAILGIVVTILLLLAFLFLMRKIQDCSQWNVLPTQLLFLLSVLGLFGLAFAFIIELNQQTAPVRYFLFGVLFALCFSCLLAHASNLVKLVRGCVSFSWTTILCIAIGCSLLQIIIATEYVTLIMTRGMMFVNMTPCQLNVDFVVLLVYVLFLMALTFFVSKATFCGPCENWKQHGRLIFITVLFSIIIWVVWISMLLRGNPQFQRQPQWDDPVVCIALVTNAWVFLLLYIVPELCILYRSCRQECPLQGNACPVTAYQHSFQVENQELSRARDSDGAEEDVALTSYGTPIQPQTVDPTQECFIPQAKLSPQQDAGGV
Protocol: as §1

LPAR1 = molecular target: T7, LPAR1 (Homo sapiens, UniProt Q92633)
T7 construct: purchased PRESTO-Tango GPCR kit (Roth lab / Addgene)
T7 sequence (Q92633 whole entry): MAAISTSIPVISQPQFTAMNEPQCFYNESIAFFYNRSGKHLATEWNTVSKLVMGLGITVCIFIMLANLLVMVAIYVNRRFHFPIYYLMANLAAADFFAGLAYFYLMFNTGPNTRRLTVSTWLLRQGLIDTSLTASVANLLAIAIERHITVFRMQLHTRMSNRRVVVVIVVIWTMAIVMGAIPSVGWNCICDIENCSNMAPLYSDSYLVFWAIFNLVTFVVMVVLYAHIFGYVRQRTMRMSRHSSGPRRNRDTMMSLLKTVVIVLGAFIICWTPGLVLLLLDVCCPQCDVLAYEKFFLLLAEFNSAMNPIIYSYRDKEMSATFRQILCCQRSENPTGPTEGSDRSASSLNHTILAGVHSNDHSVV
Protocol: as §1

S1PR3 = molecular target: T8, S1PR3 (Homo sapiens, UniProt Q99500)
T8 construct: purchased PRESTO-Tango GPCR kit (Roth lab / Addgene)
T8 sequence (Q99500 whole entry): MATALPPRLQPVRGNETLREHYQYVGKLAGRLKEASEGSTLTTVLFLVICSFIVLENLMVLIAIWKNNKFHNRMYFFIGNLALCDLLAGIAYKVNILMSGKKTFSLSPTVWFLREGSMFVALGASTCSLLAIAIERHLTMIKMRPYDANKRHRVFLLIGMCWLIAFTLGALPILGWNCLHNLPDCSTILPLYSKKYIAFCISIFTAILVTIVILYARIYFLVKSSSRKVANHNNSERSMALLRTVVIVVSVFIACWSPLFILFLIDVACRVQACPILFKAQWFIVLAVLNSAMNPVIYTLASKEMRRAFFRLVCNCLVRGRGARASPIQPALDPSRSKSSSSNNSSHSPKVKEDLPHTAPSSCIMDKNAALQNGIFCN
Protocol: as §1

GPR183 = molecular target: T9, GPR183 (Homo sapiens, UniProt P32249)
T9 construct: purchased PRESTO-Tango GPCR kit (Roth lab / Addgene)
Protocol: as §1

GPR142 = molecular target: T10, GPR142 (Homo sapiens, UniProt Q7Z601)
T10 construct: purchased PRESTO-Tango GPCR kit (Roth lab / Addgene)
T10 sequence (Q7Z601 whole entry): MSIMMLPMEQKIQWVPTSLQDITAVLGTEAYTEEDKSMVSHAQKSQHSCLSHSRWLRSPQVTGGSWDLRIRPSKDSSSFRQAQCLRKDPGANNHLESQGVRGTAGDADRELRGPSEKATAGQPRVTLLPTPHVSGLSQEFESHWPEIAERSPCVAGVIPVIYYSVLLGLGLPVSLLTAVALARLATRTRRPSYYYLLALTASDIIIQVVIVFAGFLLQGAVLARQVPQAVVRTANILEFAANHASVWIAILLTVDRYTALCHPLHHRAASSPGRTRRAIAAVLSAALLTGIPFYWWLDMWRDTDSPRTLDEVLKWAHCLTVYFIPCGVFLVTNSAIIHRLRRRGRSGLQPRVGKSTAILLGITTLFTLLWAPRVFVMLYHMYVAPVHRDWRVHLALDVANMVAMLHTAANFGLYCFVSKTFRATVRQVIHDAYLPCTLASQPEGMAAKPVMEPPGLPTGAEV
Protocol: as §1

CXCR5 = molecular target: T11, CXCR5 (Homo sapiens, UniProt P32302)
T11 construct: purchased PRESTO-Tango GPCR kit (Roth lab / Addgene)
Protocol: as §1

CYSLTR1 = molecular target: T12, CYSLTR1 (Homo sapiens, UniProt Q9Y271)
T12 construct: purchased PRESTO-Tango GPCR kit (Roth lab / Addgene)
Protocol: as §1

TSHR = molecular target: T13, TSHR (Homo sapiens, UniProt P16473)
T13 construct: purchased PRESTO-Tango GPCR kit (Roth lab / Addgene)
Protocol: as §1

FPR1 = molecular target: T14, FPR1 (Homo sapiens, UniProt P21462)
T14 construct: purchased PRESTO-Tango GPCR kit (Roth lab / Addgene)
T14 sequence (P21462 whole entry): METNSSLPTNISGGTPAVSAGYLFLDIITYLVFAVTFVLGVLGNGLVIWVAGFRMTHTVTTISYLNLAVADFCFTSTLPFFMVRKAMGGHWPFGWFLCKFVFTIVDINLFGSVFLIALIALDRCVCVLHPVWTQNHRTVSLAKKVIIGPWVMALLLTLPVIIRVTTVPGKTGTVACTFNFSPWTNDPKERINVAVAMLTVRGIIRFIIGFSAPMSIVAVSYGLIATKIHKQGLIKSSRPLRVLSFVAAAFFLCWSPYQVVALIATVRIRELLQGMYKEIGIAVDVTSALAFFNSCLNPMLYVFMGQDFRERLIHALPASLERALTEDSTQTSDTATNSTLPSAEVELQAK
Protocol: as §1

PTGIR = molecular target: T15, PTGIR (Homo sapiens, UniProt P43119)
T15 construct: purchased PRESTO-Tango GPCR kit (Roth lab / Addgene)
Protocol: as §1

TAAR9 = molecular target: T16, TAAR9 (Homo sapiens, UniProt Q96RI9)
T16 construct: purchased PRESTO-Tango GPCR kit (Roth lab / Addgene)
Protocol: as §1

HCTR1 = molecular target: T17, HCTR1 (Homo sapiens, UniProt O43613)
T17 construct: purchased PRESTO-Tango GPCR kit (Roth lab / Addgene)
Protocol: as §1

GPR62 = molecular target: T18, GPR62 (Homo sapiens, UniProt Q9BZJ7)
T18 construct: purchased PRESTO-Tango GPCR kit (Roth lab / Addgene)
Protocol: as §1

GPR15 = molecular target: T19, GPR15 (Homo sapiens, UniProt P49685)
T19 construct: purchased PRESTO-Tango GPCR kit (Roth lab / Addgene)
Protocol: as §1

CASR = molecular target: T20, CASR (Homo sapiens, UniProt P41180)
T20 construct: purchased PRESTO-Tango GPCR kit (Roth lab / Addgene)
Protocol: as §1

LHCGR = molecular target: T21, LHCGR (Homo sapiens, UniProt P22888)
T21 construct: purchased PRESTO-Tango GPCR kit (Roth lab / Addgene)
T21 sequence (P22888 27-699): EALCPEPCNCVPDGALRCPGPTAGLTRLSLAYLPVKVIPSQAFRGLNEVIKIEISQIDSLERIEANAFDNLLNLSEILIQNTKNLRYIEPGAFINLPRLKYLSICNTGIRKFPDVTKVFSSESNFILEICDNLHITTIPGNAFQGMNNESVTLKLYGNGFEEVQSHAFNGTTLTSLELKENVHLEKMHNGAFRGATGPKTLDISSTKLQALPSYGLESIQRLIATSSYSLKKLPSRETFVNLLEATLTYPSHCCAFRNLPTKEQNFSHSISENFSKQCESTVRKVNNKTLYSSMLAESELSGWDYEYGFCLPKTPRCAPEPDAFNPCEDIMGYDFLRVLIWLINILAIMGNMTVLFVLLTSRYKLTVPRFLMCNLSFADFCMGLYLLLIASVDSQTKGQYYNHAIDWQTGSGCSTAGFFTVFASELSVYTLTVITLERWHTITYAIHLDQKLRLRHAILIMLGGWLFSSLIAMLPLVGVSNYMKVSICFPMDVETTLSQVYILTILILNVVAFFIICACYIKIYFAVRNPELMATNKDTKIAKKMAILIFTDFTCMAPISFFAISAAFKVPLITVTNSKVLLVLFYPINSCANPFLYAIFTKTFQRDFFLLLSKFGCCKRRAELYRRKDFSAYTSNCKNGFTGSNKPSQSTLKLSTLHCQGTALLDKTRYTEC
Protocol: as §1

MRGPRX1 = molecular target: T22, MRGPRX1 (Homo sapiens, UniProt Q96LB2)
T22 construct: purchased PRESTO-Tango GPCR kit (Roth lab / Addgene)
Protocol: as §1

GPR6 = molecular target: T23, GPR6 (Homo sapiens, UniProt P46095)
T23 construct: purchased PRESTO-Tango GPCR kit (Roth lab / Addgene)
Protocol: as §1

CCR8 = molecular target: T24, CCR8 (Homo sapiens, UniProt P51685)
T24 construct: purchased PRESTO-Tango GPCR kit (Roth lab / Addgene)
T24 sequence (P51685 whole entry): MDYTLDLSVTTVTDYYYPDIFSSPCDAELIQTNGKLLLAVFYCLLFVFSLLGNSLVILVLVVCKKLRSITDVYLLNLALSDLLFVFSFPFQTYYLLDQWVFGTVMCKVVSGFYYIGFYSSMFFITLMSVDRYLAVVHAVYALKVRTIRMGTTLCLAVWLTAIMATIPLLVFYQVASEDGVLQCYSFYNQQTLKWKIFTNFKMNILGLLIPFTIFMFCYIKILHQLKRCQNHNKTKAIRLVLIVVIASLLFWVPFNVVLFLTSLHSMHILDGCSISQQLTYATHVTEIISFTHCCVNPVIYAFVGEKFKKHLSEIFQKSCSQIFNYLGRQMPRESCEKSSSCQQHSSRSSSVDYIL
Protocol: as §1

FSHR = molecular target: T25, FSHR (Homo sapiens, UniProt P23945)
T25 construct: purchased PRESTO-Tango GPCR kit (Roth lab / Addgene)
Protocol: as §1

MTNR1B = molecular target: T26, MTNR1B (Homo sapiens, UniProt P49286)
T26 construct: purchased PRESTO-Tango GPCR kit (Roth lab / Addgene)
Protocol: as §1

GPR18 = molecular target: T27, GPR18 (Homo sapiens, UniProt Q14330)
T27 construct: purchased PRESTO-Tango GPCR kit (Roth lab / Addgene)
Protocol: as §1

GPR101 = molecular target: T28, GPR101 (Homo sapiens, UniProt Q96P66)
T28 construct: purchased PRESTO-Tango GPCR kit (Roth lab / Addgene)
Protocol: as §1

GHSR = molecular target: T29, GHSR (Homo sapiens, UniProt Q92847)
T29 construct: purchased PRESTO-Tango GPCR kit (Roth lab / Addgene)
T29 sequence (Q92847 whole entry): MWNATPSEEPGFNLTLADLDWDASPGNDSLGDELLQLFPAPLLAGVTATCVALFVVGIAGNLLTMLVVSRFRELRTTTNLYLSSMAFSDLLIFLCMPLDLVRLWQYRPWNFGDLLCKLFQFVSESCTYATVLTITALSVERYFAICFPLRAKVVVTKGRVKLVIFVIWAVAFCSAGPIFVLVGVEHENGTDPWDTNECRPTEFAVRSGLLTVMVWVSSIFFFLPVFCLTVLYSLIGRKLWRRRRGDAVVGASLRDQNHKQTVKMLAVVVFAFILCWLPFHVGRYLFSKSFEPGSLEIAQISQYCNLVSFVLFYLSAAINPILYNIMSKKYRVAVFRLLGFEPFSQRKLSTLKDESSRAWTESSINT
Protocol: as §1

GHRHR = molecular target: T30, GHRHR (Homo sapiens, UniProt Q02643)
T30 construct: purchased PRESTO-Tango GPCR kit (Roth lab / Addgene)
Protocol: as §1

ADRB3 = molecular target: T31, ADRB3 (Homo sapiens, UniProt P13945)
T31 construct: purchased PRESTO-Tango GPCR kit (Roth lab / Addgene)
Protocol: as §1

CXCR6 = molecular target: T32, CXCR6 (Homo sapiens, UniProt O00574)
T32 construct: purchased PRESTO-Tango GPCR kit (Roth lab / Addgene)
Protocol: as §1

CCR3 = molecular target: T33, CCR3 (Homo sapiens, UniProt P51677)
T33 construct: purchased PRESTO-Tango GPCR kit (Roth lab / Addgene)
Protocol: as §1

P2RY10 = molecular target: T34, P2RY10 (Homo sapiens, UniProt O00398)
T34 construct: purchased PRESTO-Tango GPCR kit (Roth lab / Addgene)
T34 sequence (O00398 whole entry, one chain of several): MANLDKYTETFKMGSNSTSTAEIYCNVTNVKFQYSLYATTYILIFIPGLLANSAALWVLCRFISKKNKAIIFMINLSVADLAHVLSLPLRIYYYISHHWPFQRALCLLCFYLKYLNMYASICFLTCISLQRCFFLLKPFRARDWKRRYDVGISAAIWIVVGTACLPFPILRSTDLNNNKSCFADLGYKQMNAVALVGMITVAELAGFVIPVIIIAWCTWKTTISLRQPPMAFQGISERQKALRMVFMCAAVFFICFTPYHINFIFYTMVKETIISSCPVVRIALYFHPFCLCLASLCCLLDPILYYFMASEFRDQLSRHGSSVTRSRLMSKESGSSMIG
Protocol: as §1

GPR65 = molecular target: T35, GPR65 (Homo sapiens, UniProt Q8IYL9)
T35 construct: purchased PRESTO-Tango GPCR kit (Roth lab / Addgene)
T35 sequence (Q8IYL9 whole entry): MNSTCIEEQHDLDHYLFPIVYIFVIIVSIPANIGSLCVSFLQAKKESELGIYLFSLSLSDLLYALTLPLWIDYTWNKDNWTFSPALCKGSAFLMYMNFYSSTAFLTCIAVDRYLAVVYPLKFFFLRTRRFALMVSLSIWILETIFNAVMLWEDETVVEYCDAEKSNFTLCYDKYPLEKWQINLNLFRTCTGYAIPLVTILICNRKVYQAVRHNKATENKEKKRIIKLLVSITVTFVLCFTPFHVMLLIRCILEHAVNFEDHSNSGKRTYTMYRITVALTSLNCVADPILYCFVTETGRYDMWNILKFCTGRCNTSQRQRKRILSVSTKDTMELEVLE
Protocol: as §1

GPR1 = molecular target: T36, GPR1 (Homo sapiens, UniProt P46091)
T36 construct: purchased PRESTO-Tango GPCR kit (Roth lab / Addgene)
T36 sequence (P46091 whole entry): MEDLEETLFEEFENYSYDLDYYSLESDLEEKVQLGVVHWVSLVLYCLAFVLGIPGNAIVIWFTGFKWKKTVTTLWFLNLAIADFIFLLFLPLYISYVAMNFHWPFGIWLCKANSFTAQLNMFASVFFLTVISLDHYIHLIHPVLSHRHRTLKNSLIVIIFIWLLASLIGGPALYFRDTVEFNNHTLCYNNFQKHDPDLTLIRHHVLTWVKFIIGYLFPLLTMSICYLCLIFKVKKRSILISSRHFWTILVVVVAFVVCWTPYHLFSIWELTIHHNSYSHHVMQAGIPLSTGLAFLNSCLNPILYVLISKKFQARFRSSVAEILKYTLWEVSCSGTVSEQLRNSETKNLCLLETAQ
Protocol: as §1

Structure (SMILES)	GPCR activation (heatmap value) (FFA1)	GPCR activation (heatmap value) (CHRM5)	GPCR activation (heatmap value) (OXER1)	GPCR activation (heatmap value) (HTR1D)	GPCR activation (heatmap value) (GPR82)	GPCR activation (heatmap value) (GPRC5D)	GPCR activation (heatmap value) (LPAR1)	GPCR activation (heatmap value) (S1PR3)	GPCR activation (heatmap value) (GPR183)	GPCR activation (heatmap value) (GPR142)	GPCR activation (heatmap value) (CXCR5)	GPCR activation (heatmap value) (CYSLTR1)	GPCR activation (heatmap value) (TSHR)	GPCR activation (heatmap value) (FPR1)	GPCR activation (heatmap value) (PTGIR)	GPCR activation (heatmap value) (TAAR9)	GPCR activation (heatmap value) (HCTR1)	GPCR activation (heatmap value) (GPR62)	GPCR activation (heatmap value) (GPR15)	GPCR activation (heatmap value) (CASR)	also measured
CC(C)Cc1ncc(CCCCNC(=N)N)[nH]c1=O [3-Homo]	-0.171	-0.008955	0.0005851	-0.01602	-0.5831	0.05555	-0.9265	-0.09323	-0.6232	-0.286	-0.9057	-0.2334	-0.3975	-1.272	-0.205	-0.5012	0.1163	0.1938	-0.3204	-0.5038	GPCR activation (heatmap value) (LHCGR): 0.1782; GPCR activation (heatmap value) (MRGPRX1): 0.1239; GPCR activation (heatmap value) (GPR6): 0.1759; GPCR activation (heatmap value) (CCR8): -1.739; GPCR activation (heatmap value) (FSHR): -0.01288; GPCR activation (heatmap value) (MTNR1B): 0.08839; GPCR activation (heatmap value) (GPR18): -0.3064; GPCR activation (heatmap value) (GPR101): -0.2435; GPCR activation (heatmap value) (GHSR): 0.75; GPCR activation (heatmap value) (GHRHR): 0.5021; GPCR activation (heatmap value) (ADRB3): -1.912; GPCR activation (heatmap value) (CXCR6): 1.014; GPCR activation (heatmap value) (CCR3): -0.05608; GPCR activation (heatmap value) (P2RY10): -0.398; GPCR activation (heatmap value) (GPR65): 0.1433; GPCR activation (heatmap value) (GPR1): 0.03802
CC(C)Cc1ncc(CCCNC(=N)N)[nH]c1=O [compound 3]	-0.7235	0.7902	-0.9579	0.2043	0.0221	-1.121	-0.4869	-0.834	-0.9955	-0.6317	0.2848	0.3416	0.2016	0.7196	0.2177	-0.2146	-0.3941	1.991	-0.8181	-0.8261	GPCR activation (heatmap value) (LHCGR): 0.1147; GPCR activation (heatmap value) (MRGPRX1): -1.215; GPCR activation (heatmap value) (GPR6): -1.168; GPCR activation (heatmap value) (CCR8): -0.8888; GPCR activation (heatmap value) (FSHR): 0.2361; GPCR activation (heatmap value) (MTNR1B): -0.5682; GPCR activation (heatmap value) (GPR18): 0.788; GPCR activation (heatmap value) (GPR101): 0.4147; GPCR activation (heatmap value) (GHSR): -0.1187; GPCR activation (heatmap value) (GHRHR): 0.3749; GPCR activation (heatmap value) (ADRB3): 0.7966; GPCR activation (heatmap value) (CXCR6): 0.09324; GPCR activation (heatmap value) (CCR3): -0.6954; GPCR activation (heatmap value) (P2RY10): -0.2181; GPCR activation (heatmap value) (GPR65): -0.2267; GPCR activation (heatmap value) (GPR1): -0.7172
